Test results from patent US20230121689A1, “CEPHALOSPORIN ANTIBACTERIAL COMPOUND AND PHARMACEUTICAL APPLICATION THEREOF” (priority 2020, published 2023).
In brackets after ≈: the same amount, converted by molar mass. Read-outs that look alike come from different tables or passages of the source.

What was measured:
[1] = system: Carbapenem-resistant Acinetobacter baumannii (CRAB); experiment: Test Example 1: antibacterial activity test (MIC); assay type: cell-based
Procedure, shortened: (§1)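 Broth microdilution MIC per CLSI guidance; 2-fold series from 32 μg/mL (11 points, duplicate wells) against strains adjusted to 0.5 McF (530 nm) and diluted into medium. MIC is the lowest concentration visibly inhibiting growth relative to drug-free growth controls.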

[2] = system: Carbapenem-resistant Enterobacteriaceae (CRE); experiment: Test Example 1: antibacterial activity test (MIC); assay type: cell-based
Procedure, shortened: as §1

[3] = system: Carbapenem-resistant Pseudomonas aeruginosa (CRPA); experiment: Test Example 1: antibacterial activity test (MIC); assay type: cell-based
Procedure, shortened: as §1

[4] = system: Carbapenem-resistant Acinetobacter baumannii (CRAB, Acinetobacter baumannii); experiment: Test Example 2: antibacterial activity test (MIC); assay type: cell-based; settings: ID-CAMHB, read-out: ID-CAMHB, MIC
Procedure: (§2) 1. The test compounds were dissolved in sterile normal saline, vortexed for uniformly mixing, and diluted in a 2-fold dilution with the sterile normal saline (11 concentration points in total). The test concentration range was 32-0.031 μg/mL, and two duplicate wells were set for each concentration. Additional wells without drug dosing were set as growth controls. 2. 4 μL of the diluent was added to 196 μL of the bacterial suspension in a 96-well plate (the bacterial count in the bacterial suspension was 2-8×10^5 colony forming units/mL). 3.
(§3) The minimum inhibitory concentration (MIC) assay was performed with reference to the Clinical and Laboratory Standards Institute (CLSI) guidelines.

[5] = system: Carbapenem-resistant Enterobacteriaceae (CRE, Klebsiella pneumoniae); experiment: Test Example 2: antibacterial activity test (MIC); assay type: cell-based; settings: ID-CAMHB, read-out: ID-CAMHB, MIC
Procedure: as §2, §3

[6] = system: Carbapenem-resistant Pseudomonas aeruginosa (CRPA, Pseudomonas aeruginosa); experiment: Test Example 2: antibacterial activity test (MIC); assay type: cell-based; settings: ID-CAMHB, read-out: ID-CAMHB, MIC
Procedure: as §2, §3

[7] = system: Control Strain Pseudomonas aeruginosa ATCC 27853; experiment: Test Example 2: antibacterial activity test (MIC); assay type: cell-based; settings: ATCC27853, ID-CAMHB, ATCC 27853, read-out: ID-CAMHB, MIC
Procedure: as §2, §3

[8] = system: Control strain Escherichia coli ATCC 25922; experiment: Test Example 2: antibacterial activity test (MIC); assay type: cell-based; settings: ATCC25922, ID-CAMHB, ATCC 25922, read-out: ID-CAMHB, MIC
Procedure: as §2, §3

[9] = Test Example 3: pharmacokinetic study in cynomolgus monkeys; assay type: in vivo; settings: cynomolgus monkey, plasma, 10 mg/kg single intravenous infusion, individual animals
Procedure: An appropriate amount of a test compound was weighed precisely and added to a container, and 0.9% sodium chloride injection and 0.2 M NaOH solution were added thereto in an ice bath until the test compound was completely dissolved, so that a sample solution at a concentration of 2 mg/mL was obtained followed by storage at 2-8° C. for later use.
Species and strain: cynomolgus monkey Animal grade: general grade Animal source: Guangxi Xiongsen Primate Experimental Animal Breeding Development Co., Ltd. Number of the using of laboratory animal: SYXK (Su) 2019-0012
6 cynomolgus monkeys (half male and half female) were selected and randomly divided into 3 groups with 1 animal/sex in each group. The cynomolgus monkeys were administered with the test sample at a dose of 10 mg/kg by the single intravenous infusion. Blood samples were collected from each group of animals at the following time points: before administration, and 5 min, 15 min, 0.5 h, 1 h, 2 h, 4 h, 6 h, and 8 h after administration. In the test, the concentration of each test compound in the plasma of the cynomolgus monkey was detected by the LC-MS/MS method, and the lower limit of quantification of the analysis methods for the plasma samples were all 1 μg/mL. The plasma concentration data were analyzed by the non-compartmental analysis (NCA) of the analysis software for pharmacokinetic data, WinNonlin, pharmacokinetic parameters were calculated, and pharmacokinetic characteristics of the test compounds in cynomolgus monkeys after administration were investigated, with the results shown in the following table

[10] = both sexes, cynomolgus, iv, 10 mg/kg

CC(C)(O/N=C(\C(=O)N[C@@H]1C(=O)N2C(C(=O)[O-])=C(C[N+]3(CCNC(=O)c4ccc(O)c(O)c4Cl)CCCC3)CS[C@H]12)c1csc(N)n1)C(=O)O [Cefiderocol, reference compound]
MIC ([1]; CRAB strain No. 100085): 0.5 µg/mL (≈ 0.665 µM) | MIC ([1]; CRAB strain No. 100333): 2 µg/mL (≈ 2.66 µM) | MIC ([1]; CRAB strain No. 110440): 1.5 µg/mL (≈ 1.99 µM) | MIC ([1]; CRAB strain No. 110477): 1 µg/mL (≈ 1.33 µM) | MIC ([1]; CRAB strain No. 110517): 0.5 µg/mL (≈ 0.665 µM) | MIC ([2]; CRE strain No. 100109): 1 µg/mL (≈ 1.33 µM) | MIC ([2]; CRE strain No. 100186): 0.5 µg/mL (≈ 0.665 µM) | MIC ([2]; CRE strain No. 110502): 12 µg/mL (≈ 16 µM) | MIC ([2]; CRE strain No. 110525): 6 µg/mL (≈ 7.98 µM) | MIC ([2]; CRE strain No. 311277): 5 µg/mL (≈ 6.65 µM) | MIC ([3]; CRPA strain No. 100110): 0.047 µg/mL (≈ 0.0625 µM) | MIC ([3]; CRPA strain No. 110163): 1 µg/mL (≈ 1.33 µM) | MIC ([3]; CRPA strain No. 110224): 0.75 µg/mL (≈ 0.997 µM) | MIC ([3]; CRPA strain No. 110358): 1 µg/mL (≈ 1.33 µM) | MIC ([3]; CRPA strain No. 110390): 0.5 µg/mL (≈ 0.665 µM) | MIC ([4]; FDA-CDC AR-BANK #0036 (strB, OXA-65, OXA-24, strA, sul2)): 0.25 µg/mL (≈ 0.332 µM) | MIC ([4]; FDA-CDC AR-BANK #0052 (OXA-58, OXA-100, sul2)): 0.0625 µg/mL (≈ 0.0831 µM) | MIC ([4]; FDA-CDC AR-BANK #0063 (OXA-23, OXA-65, OXA-24, sul2)): 8 µg/mL (≈ 10.6 µM) | MIC ([4]; FDA-CDC AR-BANK #0070 (OXA-58, OXA-100, sul2)): 0.125 µg/mL (≈ 0.166 µM) | MIC ([4]; FDA-CDC AR-BANK #0101 (strB, OXA-65, OXA-24, strA, sul2)): 1 µg/mL (≈ 1.33 µM) | MIC ([5]; FDA-CDC AR-BANK #0361 (TEM-1; SHV-12; KPC-2)): 2 µg/mL (≈ 2.66 µM) | MIC ([5]; FDA-CDC AR-BANK #0362 (TEM-1; SHV-11; KPC-2)): 0.5 µg/mL (≈ 0.665 µM) | MIC ([5]; FDA-CDC AR-BANK #0363 (TEM-1; SHV-12; KPC-2)): 0.25 µg/mL (≈ 0.332 µM) | MIC ([5]; FDA-CDC AR-BANK #0438 (aph(3′)-Ia, dfrA12, KPC-3, OmpK35, oqxA, oqxB, SHV-11)): 2 µg/mL (≈ 2.66 µM) | MIC ([5]; FDA-CDC AR-BANK #0453 (KPC-3, OmpK35, oqxA, oqxB, SHV-11, TEM-1B)): 1 µg/mL (≈ 1.33 µM) | MIC ([6]; FDA-CDC AR-BANK #0439 (aac(6′)-Il, aadA1b, BCR1, IMP-18, OXA-50)): 0.25 µg/mL (≈ 0.332 µM) | MIC ([6]; FDA-CDC AR-BANK #0441 (KPC-2)): 1 µg/mL (≈ 1.33 µM) | MIC ([6]; FDA-CDC AR-BANK #0444 (aac(6′)-Il, dfrB5, OXA-4, tet(G), VIM-2)): 2 µg/mL (≈ 2.66 µM) | MIC ([6]; FDA-CDC AR-BANK #0457 (aadA6, VIM-2)): 0.125 µg/mL (≈ 0.166 µM) | MIC [7]: 0.0625 µg/mL (≈ 0.0831 µM) | MIC [8]: 0.0625 µg/mL (≈ 0.0831 µM) | AUC(0-inf) [9, 10]: 32400 ng·h/mL | AUC(0-t) [9, 10]: 26200 ng·h/mL | clearance [9, 10]: 5.14 mL/min/kg | half-life [9, 10]: 51.6 min | Cmax ([9]; both sexes, cynomolgus, iv, 10 mg/kg, read-out: Cmax): 30500 ng/mL | MRT ([9]; both sexes, cynomolgus, iv, 10 mg/kg, read-out: MRT): 42 min | Vd ([9]; both sexes, cynomolgus, iv, 10 mg/kg, read-out: Vd): 0.381 L/kg | Tmax ([9]; both sexes): 4.8 min | AUC last ([9]; 10 mg/kg): 23940 ng·h/mL | AUCinf ([9]; 10 mg/kg): 28350 ng·h/mL | CL ([9]; 10 mg/kg): 5.8793 mL/min/kg | Cmax ([9]; 10 mg/kg): 24330 ng/mL | Vd ([9]; 10 mg/kg): 0.37963 L/kg | t1/2 ([9]; 10 mg/kg): 45 min
